This is an account of results in patent US9393288B2, “Methods of treating diseases associated with PPARγ” (The University of Vermont and State Agricultural College, priority 2012, dated 2016).

Entries after “also recorded” stand apart in the source; their conditions may differ.

For data set [1] the following is noted: rat, in vivo. How it is done: (§1) A separate group of SHR-F was used to determine if relaxin crosses the BBB by treating with relaxin (4 μg/hr) for 14 days and measuring relaxin concentration in cerebrospinal fluid (CSF) and serum (SHR-F-Rln-CSF, n=4). For the osmotic pump implant, animals were anesthetized with 3% isoflurane and minipumps implanted subcutaneously in the back of the neck. All animals received post-surgical analgesia (buprenorphine, 50 μg/kg, s.c.). Relaxin infusion was continuous for 14 days until animals were euthanized for isolated vessel experiments and tissue collection.
Animals were anesthetized with isoflurane (3% in oxygen), decapitated, and trunk blood was collected for measurement of circulating relaxin. Serum was then collected and stored at −80° C. for determination of relaxin levels by enzyme-linked immunosorbent assay (ELISA) following manufacturer's instructions (Human Relaxin-2 Quantikine ELISA Kit, R&D Systems, Minneapolis, Minn., USA). Serum samples were diluted by 1:500 in the assay.
To determine the presence of relaxin in CSF, animals were anesthetized and CSF collected through a needle inserted into the cisterna magna (Liu, L., and Duff, K. (2008) A technique for serial collection of cerebrospinal fluid from the cisterna magna in mouse. Journal of visualized experiments: JoVE). […] Relaxin levels were determined in serum and CSF by ELISA as described above, except CSF was not diluted.

Another data set concerns MMP-2. In words: MMP-2 mRNA expression (qPCR) in brain cortex and PA, SHR. The data set is classed as in vivo, rat. Particulars: relaxin-treated SHR. How it is done: After dissecting PA and MCA for isolated vessel experiments, the remaining MCA, PA, and brain cortex from the MCA territory of 4-6 rats were collected and stored at −80° C. in RNase inhibitor (1 unit/μl, RiboLock, Fermentas, Glen Burnie, Md., USA) to determine mRNA expression levels of target genes using real-time qPCR methods. Target genes were assessed using Assays on Demand from Applied Biosystems. […] All primers were designed across an exon-exon junction to avoid detecting genomic DNA, so no DNase treatment was required. Housekeeping gene β-actin was used in all qPCR experiments as a control. […]
To investigate the mechanisms by which relaxin causes selectively remodeling of PA, mRNA expression of VEGF, MMP-2, and MMP-9 were compared between MCA, PA, brain cortex. To determine if relaxin activates peroxisome proliferator-activated receptor-gamma (PPARγ), expression levels of PPARγ target genes fatty acid binding protein-4 (FABP4) and plasminogen activator inhibitor-1 (PAI-1) were determined in mesenteric adipose tissue. Expression levels of PPARγ and its target genes PAI-1 and liver X receptors-α (LXR-α) were also determined in brain cortex (Chan, S. L., and Cipolla, M. J. (2012) Determination of PPARgamma activity in adipose tissue and spleen. J Immunoassay Immunochem 33, 314-324).

Data set [2] concerns parenchymal arterioles (PA). In words: Pressurized arteriograph: vascular reactivity and structure of PA from female SHR. The data set is classed as in vivo, rat. As for the experimental part:
as §1
After collecting trunk blood, the brain was quickly removed and placed in cold physiological salt solution (PSS). PA between the M1 and M2 region of the MCA territory and the MCA from the same animals were carefully isolated from WKY-F, SHR-F, and SHR-F-Rln groups and mounted on glass cannulas. PA were identified as branches off the MCA that penetrated into the brain tissue, as previously described (han, S. L., and Cipolla, M. J. (2011) Relaxin causes selective outward remodeling of brain parenchymal arterioles via activation of peroxisome proliferator-activated receptor-gamma. FASEB J 25, 3229-3239). […] The proximal cannula was connected to an in-line pressure transducer and a servo-null pressure control system (Living Systems Instrumentation, Burlington, Vt., USA) that allowed intravascular pressure to be maintained at a set pressure or changed at a variable rate. The distal cannula was closed during the experiment to avoid flow-mediated responses. Temperature and pH were continuously measured and maintained at 37.0±0.5° C. and 7.40±0.05, respectively. Measurements of inner diameter (ID) and wall thickness (WT) were made via video microscopy (Living Systems Instrumentation, Burlington, Vt.).
PA and MCA were equilibrated for 1 hour, after which myogenic activity was determined by stepwise increases in pressure from 40 to 100 mmHg for PA or 50 to 175 mmHg for MCA. ID and WT were measured at each pressure once stable. Endothelium-dependent dilation was studied by adding NS309 (10^−8-10^−5 M), an activator of small- and intermediate-conductance calcium-activated potassium channels (SKCa, IKCa). NS309 was washed out of the bath and a single concentration of the nitric oxide synthase (NOS) inhibitor L-nitro-n-arginine (L-NNA, 10^−4 M) added to the bath. Constriction to NOS inhibition was used as an additional indicator of endothelial function. In the presence of L-NNA, sodium nitroprusside (SNP, 10^−8-10^−5 M) was added to the bath to assess endothelium-independent vasodilation. To obtain structural measurements, ID and WT were recorded at pressures between 5 to 200 mmHg for PA or 5 to 175 mmHg for MCA in zero-calcium PSS containing ethylene glycol tetra-acetic acid (EGTA) and outer diameter (OD) and distensibility calculated.
Percent tone was calculated as percent decrease in ID from the passive diameter at each intravascular pressure: [1−(IDactive/IDpassive)]×100. Percent reactivity for vasodilators was calculated as ((IDdose−IDstart)/(IDpassive−IDstart))×100. Percent constriction for vasoconstrictor was calculated as (1−(IDdose/IDstart))×100. OD was calculated from measured ID and WT: ID+2WT. Distensibility at a given pressure was calculated as (IDpassive−IDoriginal)/(IDoriginal)×100, where IDoriginal is defined as passive inner diameter determined at lowest pressure (5 mmHg). Data from qPCR study were analyzed using the −2^ΔΔCT method, as described previously (Livak, K. J., and Schmittgen, T. D. (2001) Analysis of relative gene expression data using real-time quantitative PCR and the 2(−Delta Delta C(T)) Method. Methods 25, 402-408). Data were removed when the Ct values of technical replicates differed by more than 0.5.

Setting [3] is: SHR-F-Rln vs untreated SHR-F, listed as Relaxin.

relaxin: in data set [1], the “Relaxin in CSF as share of that in the circulation” value is “about 0.3%” and the “Relaxin in cerebrospinal fluid” value turned out to be 110 ± 30 pg/mL. In addition, the “MMP-2 expression in brain cortex” value with MMP-2 is on record as “increased”. Also, the “Reactivity of PA to NS309 (inner diameter increased by)” value in data set [2] (NS309 10^−6 M, vs 39±11% in SHR-F, p=0.058) is 67±8%. Moreover, the PA inner diameter in data set [2] (SHR treated with human relaxin-2 4 μg/hr 14 days, untreated groups 58±3 and 49±3, p<0.05) stood at 56±4 μm. For the same substance, the PA distensibility in data set [2] (SHR, relaxin 4 μg/hr 14 days, vs 10±2% in SHR-F, p<0.05) came to 34±2%. Moreover, in data set [2] (SHR-F-Rln vs untreated SHR-F), the “Myogenic reactivity (active ID) of PA” value is recorded as “did not affect”, the “Myogenic tone (percent tone) of PA” value is given as “did not affect”, the “Passive ID of PA” value is on record as “increases the size; also recorded: increased” and the “Passive OD of PA” value was “increased”. Also, the “Passive distensibility of PA” value in data set [2] (SHR-F-Rln vs untreated SHR-F) is listed as “increased”. In data set [2] (setting [3]), the “Myogenic tone (percent tone) of PA” value is given as “without affecting”, the “Passive ID of PA” value was “increased”, the “Passive distensibility of PA” value is recorded as “big effect; also recorded: increased” and the “Reactivity of PA to the SKCa/IKCa activator NS309” value is “tended to increase; also recorded: increased”. The “Passive ID of PA” value in data set [2] (at 5 mmHg, vs 44±2 μm in SHR-F) is recorded as 42±3 μm. Further, in data set [2] (hypertensive rats, relaxin alone), the “Kind of structural remodeling of PA” value is listed as “outward eutrophic remodeling”.
